In patent US20230219906A1, “MACROCYCLIC-2-AMINO-3-FLUORO-BUT-3-ENAMIDES AS INHIBITORS OF MCL-1” (Janssen Pharmaceutica NV, priority 2020, published 2023):

Assays:
[1] = biological target: Myeloid Cell Leukemia 1(Mcl-1) (Homo sapiens, UniProt Q07820); assay: Terbium labeled Mcl-1 HTRF binding assay with Cy5-labeled BIM BH3 peptide; settings: displacement of Cy5 Bim BH3 peptide; Ki=IC50/(1+[L]/Kd), [L]=8 nM, Kd=10 nM; 60 minutes at room temperature; read-out: Tb-MCL1 Ki
Outline: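 TR-FRET displacement of Cy5-BIM BH3 peptide (8 nM; Kd 10 nM) from 25 pM Tb-labelled Mcl-1 in 10 mM Tris-HCl pH 7.5, 150 mM NaCl, 2 mM DTT, 0.0025% Tween-20, 0.1 mg/mL BSA, 1% DMSO. 60 min at room temperature; 665/620 nm ratio normalized to controls, IC50 from 11-point curve.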

[2] = test system: MOLP-8 human multiple myeloma cell line; assay: Caspase-Glo 3/7 apoptosis induction assay in MOLP-8 cells; format: cell-based; settings: Homo sapiens, MOLP-8, 2 h, caspase-3/7 activity, 2 hours at 37° C.; averaged over all runs on all batches; read-out: MOLP8 AC50
Outline: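 MOLP-8 cells were treated for 2 h at 37° C with 10-dose, 1/3 serial dilutions ([…], 0.5% DMSO final, duplicates). Caspase-3/7 activity was read by Caspase-Glo luminescence 30 min after reagent addition. % effect was normalised between low (1% DMSO) and high (positive control) controls.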

Sequence of Myeloid Cell Leukemia 1(Mcl-1) (Q07820 whole entry): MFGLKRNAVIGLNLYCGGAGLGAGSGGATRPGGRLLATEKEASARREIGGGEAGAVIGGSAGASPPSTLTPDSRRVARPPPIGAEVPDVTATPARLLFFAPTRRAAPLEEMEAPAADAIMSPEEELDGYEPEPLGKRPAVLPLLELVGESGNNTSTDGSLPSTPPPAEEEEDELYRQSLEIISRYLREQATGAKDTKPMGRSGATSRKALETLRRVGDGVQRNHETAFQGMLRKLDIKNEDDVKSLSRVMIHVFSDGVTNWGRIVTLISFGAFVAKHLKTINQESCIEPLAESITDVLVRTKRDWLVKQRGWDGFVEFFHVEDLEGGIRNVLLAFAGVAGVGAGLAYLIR

## C[C@@H]1[C@@H](C)C/C=C(\F)[C@H](C(=O)N2CCOC[C@@H]2C)N2CCC[C@H]2CN2C[C@@]3(CCCc4cc(Cl)ccc43)COc3ccc(cc32)C(=O)NS1(=O)=O [Compound 12]
[1]
  Ki: 0.069 nM
[2]
  AC50: 196 nM

## COCCN(CCN1CCOCC1)C(=O)[C@H]1/C(F)=C/C[C@H](C)[C@@H](C)S(=O)(=O)NC(=O)c2ccc3c(c2)N(C[C@@H]2CCCN21)C[C@@]1(CCCc2cc(Cl)ccc21)CO3 [Compound 76]
[1]
  Ki: 0.017 nM
[2]
  AC50: 36.7 nM

## C[C@@H]1[C@@H](C)C/C=C(\F)[C@H](C(=O)N(C)CCn2cccn2)N2CCC[C@H]2CN2C[C@@]3(CCCc4cc(Cl)ccc43)COc3ccc(cc32)C(=O)NS1(=O)=O [Compound 61]
[1]
  Ki: 0.074 nM
[2]
  AC50: 166 nM

## C[C@@H]1[C@@H](C)C/C=C(\F)[C@H](C(=O)N2CCC(CC#N)CC2)N2CCC[C@H]2CN2C[C@@]3(CCCc4cc(Cl)ccc43)COc3ccc(cc32)C(=O)NS1(=O)=O [Compound 46]
[1]
  Ki: 0.091 nM
[2]
  AC50: 329 nM

## C[C@@H]1[C@@H](C)C/C=C(\F)[C@H](C(=O)N(C)CC2CCOC2)N2CCC[C@H]2CN2C[C@@]3(CCCc4cc(Cl)ccc43)COc3ccc(cc32)C(=O)NS1(=O)=O (single isomer, unassigned) [Compound 56]
[1]
  Ki: 0.038 nM
[2]
  AC50: 89.4 nM

## C[C@@H]1[C@@H](C)C/C=C(\F)[C@H](C(=O)N(C)C2CCOC2)N2CCC[C@H]2CN2C[C@@]3(CCCc4cc(Cl)ccc43)COc3ccc(cc32)C(=O)NS1(=O)=O (single isomer, unassigned) [Compound 68]
[1]
  Ki: 0.041 nM
[2]
  AC50: 103 nM

## C[C@@H]1[C@@H](C)C/C=C(\F)[C@H](C(=O)N2CC(C)(N3CCOCC3)C2)N2CCC[C@H]2CN2C[C@@]3(CCCc4cc(Cl)ccc43)COc3ccc(cc32)C(=O)NS1(=O)=O [Compound 84]
[1]
  Ki: 0.04 nM
[2]
  AC50: 317 nM

## C[C@@H]1[C@@H](C)C/C=C(\F)[C@H](C(=O)N(C)c2ccccc2)N2CCC[C@H]2CN2C[C@@]3(CCCc4cc(Cl)ccc43)COc3ccc(cc32)C(=O)NS1(=O)=O [Compound 28]
[1]
  Ki: 0.465 nM
[2]
  AC50: 302 nM

## C[C@@H]1[C@@H](C)C/C=C(\F)[C@H](C(=O)N2CCCC3(CC3)C2)N2CCC[C@H]2CN2C[C@@]3(CCCc4cc(Cl)ccc43)COc3ccc(cc32)C(=O)NS1(=O)=O (single isomer, unassigned) [Compound 16]
[1]
  Ki: 0.446 nM
[2]
  AC50: 446 nM

## COCCN1CCC(CN(C)C(=O)[C@H]2/C(F)=C/C[C@H](C)[C@@H](C)S(=O)(=O)NC(=O)c3ccc4c(c3)N(C[C@@H]3CCCN32)C[C@@]2(CCCc3cc(Cl)ccc32)CO4)CC1 [Compound 85]
[1]
  Ki: 0.025 nM
[2]
  AC50: 759 nM

## COCCN(CCOC)C(=O)[C@H]1/C(F)=C/C[C@H](C)[C@@H](C)S(=O)(=O)NC(=O)c2ccc3c(c2)N(C[C@@H]2CCCN21)C[C@@]1(CCCc2cc(Cl)ccc21)CO3 [Compound 39]
[1]
  Ki: 0.081 nM
[2]
  AC50: 19.7 nM

## CC1CN(CCN(C)C(=O)[C@H]2/C(F)=C/C[C@H](C)[C@@H](C)S(=O)(=O)NC(=O)c3ccc4c(c3)N(C[C@@H]3CCCN32)C[C@@]2(CCCc3cc(Cl)ccc32)CO4)CC(C)O1 (stereo partly drawn) [Compound 44]
[1]
  Ki: 0.104 nM
[2]
  AC50: 87.3 nM

## C[C@@H]1[C@@H](C)C/C=C(\F)[C@H](C(=O)N(C)CCOC2CCOCC2)N2CCC[C@H]2CN2C[C@@]3(CCCc4cc(Cl)ccc43)COc3ccc(cc32)C(=O)NS1(=O)=O [Compound 35]
[1]
  Ki: 0.066 nM
[2]
  AC50: 90.1 nM

## C[C@@H]1[C@@H](C)C/C=C(\F)[C@H](C(=O)N(C)Cc2ccn(C)n2)N2CCC[C@H]2CN2C[C@@]3(CCCc4cc(Cl)ccc43)COc3ccc(cc32)C(=O)NS1(=O)=O [Compound 40]
[1]
  Ki: 0.623 nM
[2]
  AC50: 138 nM

## C[C@@H]1[C@@H](C)C/C=C(\F)[C@H](C(=O)N2C[C@@H]3OCCO[C@@H]3C2)N2CCC[C@H]2CN2C[C@@]3(CCCc4cc(Cl)ccc43)COc3ccc(cc32)C(=O)NS1(=O)=O [Compound 53]
[1]
  Ki: 0.069 nM
[2]
  AC50: 169 nM

## COCCN(CCOC)C(=O)[C@H]1/C(F)=C/C[C@H](C)[C@@H](C)S(=O)(=O)NC(=O)c2ccc3c(c2)N(C[C@@H]2CCCN21)C[C@@]1(CCOc2cc(Cl)ccc21)CO3 [Compound 77]
[1]
  Ki: 0.027 nM
[2]
  AC50: 144 nM

## CO[C@@H]1CCN(C(=O)[C@H]2/C(F)=C/C[C@H](C)[C@@H](C)S(=O)(=O)NC(=O)c3ccc4c(c3)N(C[C@@H]3CCCN32)C[C@@]2(CCCc3cc(Cl)ccc32)CO4)C1 [Compound 52]
[1]
  Ki: 0.036 nM
[2]
  AC50: 90.5 nM

## COCCN(CC1CCOCC1)C(=O)[C@H]1/C(F)=C/C[C@H](C)[C@@H](C)S(=O)(=O)NC(=O)c2ccc3c(c2)N(C[C@@H]2CCCN21)C[C@@]1(CCCc2cc(Cl)ccc21)CO3 [Compound 59]
[1]
  Ki: 0.06 nM
[2]
  AC50: 33.4 nM

## C[C@@H]1[C@@H](C)C/C=C(\F)[C@@H](C(=O)N2C[C@H]3C[C@@H]2CO3)N2CCC[C@H]2CN2C[C@@]3(CCCc4cc(Cl)ccc43)COc3ccc(cc32)C(=O)NS1(=O)=O [Compound 10]
[1]
  Ki: 0.227 nM
[2]
  AC50: 285 nM

## COCCN(CCOC)C(=O)[C@H]1/C(F)=C/C[C@H](C)[C@@H](C)S(=O)(=O)NC(=O)c2cc3c(cc2F)OC[C@]2(CCCc4cc(Cl)ccc42)CN3C[C@@H]2CCCN21 [Compound 18]
[1]
  Ki: 0.05 nM
[2]
  AC50: 213 nM

## C[C@@H]1[C@@H](C)C/C=C(\F)[C@H](C(=O)N(C)CCN2CC(F)(F)C2)N2CCC[C@H]2CN2C[C@@]3(CCCc4cc(Cl)ccc43)COc3ccc(cc32)C(=O)NS1(=O)=O [Compound 87]
[1]
  Ki: 0.071 nM
[2]
  AC50: 84.8 nM

## C[C@@H]1[C@@H](C)C/C=C(\F)[C@H](C(=O)N(C)C2CCCOC2)N2CCC[C@H]2CN2C[C@@]3(CCCc4cc(Cl)ccc43)COc3ccc(cc32)C(=O)NS1(=O)=O (stereo partly drawn) [Compound 58]
[1]
  Ki: 0.041 nM
[2]
  AC50: 55.7 nM

## COCCN(CCOC)C(=O)[C@H]1/C(F)=C/C[C@H](C)[C@@H](C)S(=O)(=O)NC(=O)c2ccc3c(c2F)N(C[C@@H]2CCCN21)C[C@@]1(CCCc2cc(Cl)ccc21)CO3 [Compound 17]
[1]
  Ki: 0.032 nM
[2]
  AC50: 234 nM

## C[C@@H]1[C@@H](C)C/C=C(\F)[C@H](C(=O)N2CCCC3(CCOC3)C2)N2CCC[C@H]2CN2C[C@@]3(CCCc4cc(Cl)ccc43)COc3ccc(cc32)C(=O)NS1(=O)=O (single isomer, unassigned) [Compound 14]
[1]
  Ki: 0.126 nM
[2]
  AC50: 266 nM
